Reference: US11274332B2, “Methods of administering 3,4-diaminopyridine” (SERB SA, priority 2011, dated 2022)

Key:
hKv1.7 = molecular target: T1, hKv1.7 (Homo sapiens, UniProt Q96RP8); test: Whole cell patch clamp inhibition of hKv1.7 current in transiently transfected CHO cells (Example 5); format: cell-based; conditions: 10,000 μM in HB-PS
T1 construct: expressed in transfected cells; host or cells: CHO cells (transient transfection)
Protocol: Chemicals used in solution preparation were purchased from Sigma-Aldrich (St. Louis, Mo.), unless otherwise noted, and were of ACS reagent grade purity or higher. Stock solutions of each test article (100.104 mM and 1.00 mM 3,4-DAP phosphate and 100.023 mM and 336.335 mM N-(4-aminopyridin-3-yl) acetamide HCl) were prepared in sterile water, stored refrigerated and used within one day. […] All test article solutions contained 3% sterile water. The test articles were prepared in sufficient volume to run the assay (typically 50 mL).
CHO cells, transiently transfected with hKv1.7, were cryopreserved in 90% FBS and 10% DMSO. Frozen vials of cells were thawed rapidly in a 37° C. water bath. Cells were transferred to a 15 mL conical tube, 10 mL of growth media (Ham's/F12-PS/10% FBS) was added, the suspension was gently mixed and the tube was centrifuged at approximately 250×g for 5 min. The medium was removed, the cell pellet was resuspended in 20 mL of medium, and cells were triturated to disperse cell clumps. For electrophysiology use, 2 mL of the cell suspension was plated in each 35 mm cell culture dish. Recording began 2-3 hours after plating once the cells settled out of the media and adhered to the bottom of the culture dish. […]
Cells were transferred to the recording chamber and superfused with vehicle control solution. […] Onset and steady state inhibition of hKv1.7 current due to the test article was measured using a pulse pattern with fixed amplitudes (depolarization: +10 mV amplitude, 300 ms duration) repeated at 10-second intervals from a holding potential of −80 mV. Current amplitude was measured at the end of the step to +10 mV. Current was monitored until a new steady state was achieved. […] The IC50 for sustained current was calculated for 3,4-DAP phosphate salt.
For 3,4-DAP phosphate salt, the concentration-response relationship was evaluated at seven concentrations (1, 10, 30, 100, 300, 1000 and 3000 μM) and for N-(4-aminopyridin-3-yl) acetamide HCl salt, the concentration-response relationship was evaluated at three concentrations (100, 1000 and 3000 μM).

[1] = Rat PK study, IV and oral TID amifampridine phosphate (Example 4); format: in vivo; conditions: rat, after amifampridine phosphate
Protocol: The objective of this study was to determine the absolute bioavailability of amifampridine phosphate and the pharmacokinetics of amifampridine and its 3-N-acetyl metabolite upon single-dose IV and single-day oral dose (TID) administration.
Amifampridine phosphate was administered by IV bolus at 0.8 mg/kg (in saline) to 6 rats/sex and by oral gavage (in water) TID (approximately 6 hours apart) at dose levels of 2, 8, and 25 mg/kg/dose (equivalent to 6, 24, and 75 mg/kg/day) to 12 rats/sex/group, with oral Dose 1 given to fasted rats and Dose 2 and 3 with food ad libitum. For IV bolus dose and oral Dose 1 (dose administration No. 1), blood samples were collected from three animals/sex/timepoint at predose and 0.083 (IV only), 0.17, 0.25, 0.33, 0.5, 0.75, 1, 1.25 (IV only), 1.5, 2, 2.5, 3, and 6 hours post-dose; 0.17, 0.5, and 6 hours following the second oral dose (dose administration No. 2); and 0.17, 0.25, 0.33, 0.5, 0.75, 1, 1.5, 2, 3, 4, 6, 8, and 10 hours following the third oral dose (dose administration No. 3). The second and third oral doses were given at 6 and 12 hours, respectively, after the first dose. LC-MS/MS was used to quantify amifampridine, 3-N-acetyl and 4-N-acetyl amifampridine metabolites in rat plasma samples. […] Noncompartmental analysis was applied to the mean plasma amifampridine and 3-N-acetyl metabolite concentration data for male and female rats. […]

T1 sequence (Q96RP8 whole entry): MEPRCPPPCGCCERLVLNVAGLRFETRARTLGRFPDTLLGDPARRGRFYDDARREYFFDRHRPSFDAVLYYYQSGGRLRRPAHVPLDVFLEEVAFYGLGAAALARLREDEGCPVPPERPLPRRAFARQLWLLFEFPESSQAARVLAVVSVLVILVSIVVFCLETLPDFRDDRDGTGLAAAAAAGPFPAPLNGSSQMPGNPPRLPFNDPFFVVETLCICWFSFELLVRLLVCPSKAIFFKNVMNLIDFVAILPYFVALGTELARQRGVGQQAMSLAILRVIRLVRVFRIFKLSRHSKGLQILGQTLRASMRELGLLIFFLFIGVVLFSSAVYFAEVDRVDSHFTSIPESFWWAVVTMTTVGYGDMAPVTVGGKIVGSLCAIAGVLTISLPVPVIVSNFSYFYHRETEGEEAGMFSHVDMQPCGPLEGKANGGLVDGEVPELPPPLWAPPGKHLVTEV

| SMILES | solubility in test formulation (hKv1.7) | Cmax in plasma [1] [ng/mL] |
| --- | --- | --- |
| CC(=O)Nc1cnccc1N.Cl [N-(4-aminopyridin-3-yl) acetamide HCl] | visible precipitate was observed |  |
| CC(=O)Nc1ccncc1N [4-N-acetyl metabolite] |  | < 25 |
